The source of these data is paper PMC4767465, “NF-κB drives acquired resistance to a novel mutant-selective EGFR inhibitor” (Oncotarget, 2015).

The target of one experiment is WT-EGFR (Homo sapiens, UniProt P00533). Kind of experiment: radiometric HotSpot recombinant kinase assay, […] compound, […] ATP. The experiment is classed as biochemical.
The target of a further experiment is T1, Chk2 (Homo sapiens, UniProt O96017).
T1 construct: gene CHEK2
The experiment is described as above. The experiment is classed as biochemical.

For experiment [1], the target named is EGFR (Homo sapiens, UniProt P00533, DEL746-750). Description: EGFR phosphorylation in PC9 and HCC-827 cells, […] h treatment. It is filed as cell-based.
Experiment [2] has as its target EGFR (Homo sapiens, UniProt P00533, T790M). Description: EGFR phosphorylation in transfected […] cells. The experiment is classed as cell-based.
Another experiment has as its target EGFR-L858R/T790M (Homo sapiens, UniProt P00533, L858R/T790M). Description: radiometric HotSpot recombinant kinase assay, […] compound, […] ATP; about […] inhibition. It is filed as biochemical.
For experiment [3], the target named is EGFR (Homo sapiens, UniProt P00533, DEL746-750/T790M). Kind of experiment: EGFR phosphorylation in PC9GR4 cells, […] h treatment. The experiment is classed as cell-based.
In another experiment the test system is A549. Kind of experiment: cells. On the set-up: anti-proliferative effect in NSCLC cell lines, 50% growth inhibition concentration (GI50). The conditions noted are these: Homo sapiens, A549. The source says:
(§1) The exceptional activity of the inhibitor in EGFR-T790M cells was further confirmed in three-dimensional tumor spheroids derived from NCI-H1975 cells. […] Furthermore, increase of cellular fragments in Sub-G1 phase, chromatin condensation and nuclear fragmentation were observed after treatment with the EGFR-TKI (Supplementary Figure 3A). […] The human NSCLC cell lines A549, Calu-1, Calu-6, NCI-H460, NCI-H292, NCI-H1299, NCI-H1730, NCI-H23, NCI-H3255, NCI-H520, NCI-H522, NCI-H596, HCC-827, SKMES-1, SW1573 and NCI-H1975 and the human epidermoid carcinoma A431 cells were purchased from ATCC (Manassas, VA), and cultured as recommended. 293H cells were purchased from Invitrogen (Carlsbad, CA). PC9, PC9GR4, PC9DR1 and HCC-827 GR5 were a kind gift of Dr. Pasi A. Jänne, Harvard University, Boston, MA [13]. PC9/ER, HCC-827/R1 and H3255/XLR cells are isogenic erlotinib- or XL-647-resistant lines derived from PC9, HCC-827 and NCI-H3255 cells, respectively, as previously described. Additional information on cell cultures procedures is reported in the Supplemental Methods.

In a further experiment the test system is Calu-1. Kind of experiment: cells. To be noted: Homo sapiens, Calu-1. On the set-up: anti-proliferative effect in NSCLC cell lines, 50% growth inhibition concentration (GI50).
Source text: as §1

The test system of another experiment is Calu-6. Kind of experiment: cells. To be noted: Homo sapiens, Calu-6; read-out: CNX-2006 GI50. Details: anti-proliferative effect in NSCLC cell lines, 50% growth inhibition concentration (GI50).
Source text: as §1

A further experiment relates to HCC-827. Kind of experiment: cells. Details: anti-proliferative effect in NSCLC cell lines, 50% growth inhibition concentration (GI50). The conditions noted are these: Homo sapiens, HCC827.
Source text: as §1

A further experiment deals with NCI-H1299. Kind of experiment: cells. Details: anti-proliferative effect in NSCLC cell lines, 50% growth inhibition concentration (GI50). The conditions noted are these: Homo sapiens, NCI-H1299; read-out: CNX-2006 GI50.
Source text: as §1

The next experiment concerns NCI-H1703. Description: cells. On the set-up: anti-proliferative effect in NSCLC cell lines, 50% growth inhibition concentration (GI50). To be noted: Homo sapiens, NCI-H1703; read-out: CNX-2006 GI50.
Source text: as §1

Another experiment deals with NCI-H1975. Description: cells. Details: anti-proliferative effect in NSCLC cell lines, 50% growth inhibition concentration (GI50). To be noted: Homo sapiens, NCI-H1975; read-out: CNX-2006 GI50.
Source text: as §1

In a further experiment the test system is NCI-H23. Description: cells. On the set-up: anti-proliferative effect in NSCLC cell lines, 50% growth inhibition concentration (GI50). The conditions noted are these: Homo sapiens, NCI-H23; read-out: CNX-2006 GI50.
Source text: as §1

The next experiment concerns NCI-H292. Description: cells. Details: anti-proliferative effect in NSCLC cell lines, 50% growth inhibition concentration (GI50). To be noted: Homo sapiens, NCI-H292; read-out: CNX-2006 GI50.
Source text: as §1

A further experiment concerns NCI-H3255. Kind of experiment: cells. Details: anti-proliferative effect in NSCLC cell lines, 50% growth inhibition concentration (GI50). To be noted: Homo sapiens, NCI-H3255.
Source text: as §1

In another experiment the test system is NCI-H460. Kind of experiment: cells. The conditions noted are these: Homo sapiens, NCI-H460. On the set-up: anti-proliferative effect in NSCLC cell lines, 50% growth inhibition concentration (GI50).
Source text: as §1

The test system of a further experiment is NCI-H520. Kind of experiment: cells. Details: anti-proliferative effect in NSCLC cell lines, 50% growth inhibition concentration (GI50). The conditions noted are these: Homo sapiens, NCI-H520; read-out: CNX-2006 GI50.
Source text: as §1

The next experiment has as its system NCI-H522. Description: cells. Details: anti-proliferative effect in NSCLC cell lines, 50% growth inhibition concentration (GI50). The conditions noted are these: Homo sapiens, NCI-H522; read-out: CNX-2006 GI50.
Source text: as §1

The test system of a further experiment is NCI-H596. Kind of experiment: cells. Details: anti-proliferative effect in NSCLC cell lines, 50% growth inhibition concentration (GI50). The conditions noted are these: Homo sapiens, NCI-H596.
Source text: as §1

A further experiment deals with PC9. Description: cells. The conditions noted are these: Homo sapiens, PC-9. On the set-up: anti-proliferative effect in NSCLC cell lines, 50% growth inhibition concentration (GI50).
Source text: as §1

The next experiment relates to SKMES-1. Description: cells. The conditions noted are these: Homo sapiens, SK-MES-1; read-out: CNX-2006 GI50. Details: anti-proliferative effect in NSCLC cell lines, 50% growth inhibition concentration (GI50).
Source text: as §1

The next experiment has as its system SW1573. Description: cells. Details: anti-proliferative effect in NSCLC cell lines, 50% growth inhibition concentration (GI50). To be noted: Homo sapiens, SW1573.
Source text: as §1

Read-outs that look alike come from different tables or passages of the source.

T1 sequence (O96017 whole entry): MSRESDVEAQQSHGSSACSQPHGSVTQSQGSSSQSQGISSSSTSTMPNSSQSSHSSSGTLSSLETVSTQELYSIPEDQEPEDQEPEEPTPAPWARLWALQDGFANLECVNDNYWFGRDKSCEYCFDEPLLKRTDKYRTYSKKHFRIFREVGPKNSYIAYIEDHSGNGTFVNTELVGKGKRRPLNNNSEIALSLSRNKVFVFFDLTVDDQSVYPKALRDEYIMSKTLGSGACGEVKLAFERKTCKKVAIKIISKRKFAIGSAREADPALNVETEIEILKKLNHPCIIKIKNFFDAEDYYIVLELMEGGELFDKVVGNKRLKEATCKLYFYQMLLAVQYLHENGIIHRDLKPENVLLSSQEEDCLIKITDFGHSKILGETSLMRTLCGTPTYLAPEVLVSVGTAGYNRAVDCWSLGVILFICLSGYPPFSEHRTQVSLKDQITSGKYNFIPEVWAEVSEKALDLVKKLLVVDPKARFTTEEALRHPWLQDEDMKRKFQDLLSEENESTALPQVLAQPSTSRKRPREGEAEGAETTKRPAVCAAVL

A word on the inhibition: it is the share of the control response that was lost under treatment. In general, IC50 refers to the concentration at which inhibition is half-maximal. A word on the GI50: it is the concentration giving 50% growth inhibition. Regarding `C=CC(=O)Nc1cccc(Nc2nc(Nc3ccc(NC4CN(CCF)C4)cc3OC)ncc2C(F)(F)F)c1` [CNX-2006], the inhibition at 1 µM on WT-EGFR is greater than 50%; on Chk2, greater than 50%; at EGFR-L858R/T790M, roughly 96%. For the same compound, the IC50 on EGFR [1] is 55 to 104 nM; at EGFR [3] it was roughly 61 nM. The “EGFR phosphorylation in transfected 293H cells” value on EGFR [2] is “CNX-2006 effectively inhibited the phosphorylation of the receptor at low nanomolar concentrations”. For the same compound, the GI50 with A549 (read-out: CNX-2006 GI50) stood at 2700 ± 100 nM; in the experiment on Calu-1 (read-out: CNX-2006 GI50), 8000 ± 300 nM; in the experiment with Calu-6, 3200 ± 300 nM; in the experiment on HCC-827 (read-out: CNX-2006 GI50), 3 ± 2 nM; in the experiment with NCI-H1299, 4500 ± 500 nM; in the experiment with NCI-H1703, 4300 ± 300 nM. The GI50 with NCI-H1975 worked out at 72 ± 2 nM; in the experiment on NCI-H23, 2400 ± 300 nM; with NCI-H292, 340 ± 40 nM; in the experiment on NCI-H3255 (read-out: CNX-2006 GI50), 6 ± 2 nM; in the experiment on NCI-H460 (read-out: CNX-2006 GI50), 5000 ± 600 nM; in the experiment with NCI-H520, 5200 ± 400 nM. In addition, the concentration for 50% growth inhibition (GI50) with NCI-H522 is 1900 ± 400 nM; in the experiment with NCI-H596 (read-out: CNX-2006 GI50), 4200 ± 300 nM; in the experiment with PC9 (read-out: CNX-2006 GI50), 9 ± 1 nM; with SKMES-1, 1400 ± 100 nM; in the experiment with SW1573 (read-out: CNX-2006 GI50), 1900 ± 200 nM.
Regarding `C=CC(=O)Nc1cccc(Nc2nc(Nc3ccc(N4CCN(C(C)=O)CC4)cc3OC)ncc2C(F)(F)F)c1` [CO-1686], the GI50 in the experiment with A549 (read-out: CO-1686 GI50) was 1200 ± 200 nM; in the experiment with Calu-1 (read-out: CO-1686 GI50), 2000 ± 300 nM; with HCC-827 (read-out: CO-1686 GI50), 2 ± 1 nM; in the experiment on NCI-H3255 (read-out: CO-1686 GI50), 5 ± 2 nM; in the experiment on NCI-H460 (read-out: CO-1686 GI50) it was 2300 ± 200 nM; in the experiment on NCI-H596 (read-out: CO-1686 GI50), 2000 ± 100 nM. Moreover, the GI50 was found to be 4 ± 2 nM with PC9 (read-out: CO-1686 GI50) and 1100 ± 100 nM in the experiment on SW1573 (read-out: CO-1686 GI50).
